# Earlier results in patent US20250090522A1 (priority 2021, published 2025).
# “Also recorded” adds a separate entry of the source. Like-named read-outs stand apart in the source and are kept apart here.
# How the values were obtained:
# [1] = target: H1 receptor (Homo sapiens, UniProt P35367); settings: acidic pH
# [2] = system: histamine induced wheal and flare
# [3] = system: activator protein-1 (AP-1); settings: H1 receptor-dependent and independent mechanisms
# [4] = system: RANTES; settings: dose-dependent manner
# [5] = 421 patients with allergy/asthma treated for six months; p<0.001 for all scales
# [6] = system: chronic idiopathic urticaria (CIU); settings: from 5 to 20 mg/day
# [7] = not given; remark: listed apart in the source
# [8] = system: human rhinovirus (HRV)
# [9] = not given; remark: listed apart in the source
# [10] = system: SARS-CoV
# [11] = system: MERSCoV
# [12] = withdrawn from the US market in 1999
# [13] = airway epithelial cells from nose and lung
# H1 receptor, sequence (P35367 whole entry): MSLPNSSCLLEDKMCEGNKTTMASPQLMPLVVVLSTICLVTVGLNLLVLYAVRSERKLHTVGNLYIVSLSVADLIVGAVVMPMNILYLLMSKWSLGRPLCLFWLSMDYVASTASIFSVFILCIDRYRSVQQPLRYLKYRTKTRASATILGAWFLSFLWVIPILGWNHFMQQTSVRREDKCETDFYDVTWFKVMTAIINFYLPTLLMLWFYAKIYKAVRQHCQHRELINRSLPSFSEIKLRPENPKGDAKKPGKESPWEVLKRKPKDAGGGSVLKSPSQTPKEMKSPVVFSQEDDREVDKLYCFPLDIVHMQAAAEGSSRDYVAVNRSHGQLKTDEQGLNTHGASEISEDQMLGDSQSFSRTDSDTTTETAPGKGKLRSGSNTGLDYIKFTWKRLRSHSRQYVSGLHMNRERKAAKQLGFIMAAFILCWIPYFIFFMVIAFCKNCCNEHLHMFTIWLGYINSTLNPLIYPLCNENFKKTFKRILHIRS
structure (smiles),measurement,setting,value
O=C(O)COCCN1CCN([C@H](c2ccccc2)c2ccc(Cl)cc2)CC1 [Levocetirizine],enhanced receptor affinity over first generation mepyramine,[1],5 ×
same,potency among the five modern generation antihistamines,[2]; histamine wheal and flare data,most potent
same,effectiveness versus fexofenadine,[2]; levocetirizine 5 mg per day versus fexofenadine 180 mg per day,more effective than fexofenadine
same,activator protein-1 (AP-1) activity,[3],inhibit
same,tumor necrosis factor-a induced production of the chemokine RANTES,[4],decrease
same,quality of life (SF-36),[5],improved quality of life across all treatment domains; also recorded: independently improve quality of life
same,efficacy in CIU on titration,[6],Titratable with increasing efficacy
same,time to steady state level,in vivo,40 h
same,doses that can be safely administered,[7]; studies in humans,up to 30 mg/day
same,HRV viral replication,[8]; [13],inhibit
same,HRV-induced ICAM-1,[8]; [13],inhibit
same,HRV-induced cytokine expression,[8]; [13],inhibit
same,antiviral activity against human rhinovirus-16 (HRV-16),[8]; cell and clinical science,Cell and clinical science-antiviral
CC(C)(O)c1ccccc1CC[C@@H](SCC1(CC(=O)O)CC1)c1cccc(/C=C/c2ccc3ccc(Cl)cc3n2)c1 [Montelukast],linear pharmacokinetics to,in vivo,pharmacokinetics to 50 mg/day
same,drug interactions,"with warfarin, theophylline, digoxin, terfenadine, oral contraceptives, or prednisone",no drug interactions
same,doses administered without clinically relevant side effects,"[7]; adult patients, 22 weeks",up to 200 mg/day
same,doses administered without clinically relevant side effects,"[7]; short-term studies, approximately one week",up to 900 mg/day
same,risk of mental health side effects,[9]; compared to inhaled corticosteroids (ICS),no increased risk
same,risk of outpatient depression,"[9]; patients with a psychiatric history, compared to ICS patients",decreased risk
COc1ccc(CCN2CCC(Nc3nc4ccccc4n3Cc3ccc(F)cc3)CC2)cc1 [astemizole],activity against SARS-CoV,[10],astemizole was active against both
same,activity against MERSCoV,[11],astemizole was active against both
same,cardiac toxicity,[12],prolongation of the QTc interval
